For data set [1], the system named is Mino cells. As to the kind of experiment: Inhibition of cell proliferation of Mino cells (MTS, 3 days). As to conditions: Homo sapiens, MINO, 72 h, 3 days, MTS, Table 2, read-out: Mino Cells Inhibition Activity IC50. It is filed as cell-based. The essentials:
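Mino cells in RPMI-1640 with 15% FBS were seeded at 8000 cells/well and treated with 5-fold compound dilutions (final DMSO 0.2%) for 3 days at 37° C. Viability was measured by MTS as OD490−OD690 after 3-4 h. IC50 was fitted from inhibition relative to DMSO and blank, in three repeat experiments.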

The subject of data set [2] is MM.1S cells. As to the kind of experiment: Effect of the compound on MM.1S cell proliferation (MTS, 7 days). It is filed as cell-based. As to conditions: Homo sapiens, MM1.S, 168 h, 7 days, MTS, Table 1, read-out: MM.1S Cells Inhibition Activity IC50. The method in brief: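 MM.1S cells (20,000/well in RPMI 1640 with 10% FBS) were exposed to a 5-step compound dilution series (0.2% DMSO final) for 7 days at 37 °C, 5% CO2. MTS readout used OD490 minus OD690 after 3–4 h, and IC50 was fitted from three independent repeats.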

Data set [3] concerns MV-4-11 cells. As to the kind of experiment: Inhibition of MV-4-11 cell proliferation (MTS, 7 days). The format is cell-based. As to conditions: Homo sapiens, MV4-11, 168 h, 7 days, MTS, Table 3, read-out: MV-4-11 Cells Inhibition Activity IC50. The essentials:
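Measured at 2,000 cells per well in IMDM with 10% FBS, five-fold compound dilutions, 0.2% DMSO final, 7 days at 37° C, 5% CO2. MTS added for 3-4 hours; signal as OD490-OD690. IC50 from three repeated experiments, each in triplicate.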

Data set [4] can be described thus: Mouse pharmacokinetic experiment, oral gavage. The format is in vivo. As to conditions: ICR mice, female, oral gavage 20 mg/kg, plasma. Here is the method:
Mouse Pharmacokinetic Experimental Scheme ICR mice, female, 18-22 g, randomly divided into groups with 4 mice per group. The test compounds were administered by oral gavage at a dose volume of 10 mL/kg. The oral solution was prepared using DMSO/PEG-400/water (5:30:65, v/v/v). Mice were fasted for 12 hours prior to the experiment with free access to water. After drug administration, they were allowed to eat uniformly at 2 hours post-dose. The test compounds (20 mg/kg) were orally administered to 4 mice. Blood samples (50 μL) were collected from the orbital vein at the following time points: 5 min, 15 min, 30 min, 1 h, 2 h, 4 h, 6 h, and 24 h. The blood was centrifuged at 12,000 rpm for 2 minutes to separate plasma, which was then stored at −20° C. for blood concentration measurement.

`O=C1CCC(N2C(=O)c3cccc(NCc4cnc(-c5ccc(C(F)(F)F)cc5)s4)c3C2=O)C(=O)N1` (stereo not drawn) [Example 37]: the IC50 (as a rule, the concentration that gives 50% inhibition) in data set [1] was under 0.06 µM; in data set [2], under 0.015 µM; in data set [3] it was under 1 µM. The AUC(0-t) (as a rule, the area under the concentration-time curve up to a stated or last time point) in data set [4] was over 10 µg·h/mL. Further, in data set [4], the Cmax – broadly, the highest concentration seen after dosing – was over 2 µg/mL.
The like results for `[2H]c1c([2H])c([2H])c(-c2ncc(CNc3cccc4c3C(=O)N(C3CCC(=O)NC3=O)C4=O)o2)c([2H])c1[2H]` (stereo not drawn) [Example 45] were, in that order, under 0.06 µM, 0.015 to 0.03 µM, under 1 µM, over 10 µg·h/mL and over 2 µg/mL.
As to `O=C1CCC(N2C(=O)c3cccc(NCc4cnc(-c5ccc(OC6CC6)cc5)o4)c3C2=O)C(=O)N1` (stereo not drawn) [Example 51, 4-(((2-(4-Cyclopropoxyphenyl)oxazol-5-yl)methyl)amino)-2-(2,6-Dioxopiperidin-3-yl)isoindolin-1,3-dione], the results for the half-inhibitory concentration (IC50) in data set [1], in data set [2] and in data set [3] were under 0.06 µM, under 0.015 µM and under 1 µM, respectively. The molecule also returned an AUC(0-t) in data set [4] of over 10 µg·h/mL. Further, in data set [4], the Cmax was over 2 µg/mL.

The record behind these values is patent US20250270202A1, “SUBSTITUTED 4-AMINOISOINDOLINE COMPOUND, PREPARATION METHOD THEREFOR, PHARMACEUTICAL COMPOSITION THEREOF, AND USE THEREOF” (SHANGHAI INSTITUTE OF MATERIA MEDICA, CHINESE ACADEMY OF …, priority 2022, published 2025).
